{"source": "PubChem BioAssay AID2060625", "about": "(Molecular Pharmacology Branch, DTP, NCI, 2025)", "tested_on": "186277-243-T-J2-PDC spheroids with HUVEC/MSC, viability", "experiment": "Anticancer human tumor 186277-243-T-J2-PDC patient-derived colon adenocarcinoma cell line growth inhibition [CLK]", "conditions": "for IC50: curve of first compound; for viability, T/C: stronger effect = lower value", "in_short": "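Multi-cell-type spheroids combined patient-derived tumor cells with HUVEC endothelial cells and human mesenchymal stem cells. Paired agents were dosed in half-log steps down from about clinical Cmax, or from 10 microM where Cmax was unknown.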", "key": {"[1]": {"conditions": "second compound 0.0316 µM, first compound 0.0316 µM"}, "[2]": {"conditions": "second compound 0.0316 µM, first compound 0.1 µM"}, "[3]": {"conditions": "second compound 0.0316 µM, first compound 0.316 µM"}, "[4]": {"conditions": "second compound 0.0316 µM, first compound 1 µM"}, "[5]": {"conditions": "second compound 0.1 µM, first compound 0.0316 µM"}, "[6]": {"conditions": "second compound 0.1 µM, first compound 0.1 µM"}, "[7]": {"conditions": "second compound 0.1 µM, first compound 0.316 µM"}, "[8]": {"conditions": "second compound 0.1 µM, first compound 1 µM"}, "[9]": {"conditions": "second compound 0.316 µM, first compound 0.0316 µM"}, "[10]": {"conditions": "second compound 0.316 µM, first compound 0.1 µM"}, "[11]": {"conditions": "second compound 0.316 µM, first compound 0.316 µM"}, "[12]": {"conditions": "second compound 0.316 µM, first compound 1 µM"}, "[13]": {"conditions": "second compound 1 µM, first compound 0.0316 µM"}, "[14]": {"conditions": "second compound 1 µM, first compound 0.1 µM"}, "[15]": {"conditions": "second compound 1 µM, first compound 0.316 µM"}, "[16]": {"conditions": "second compound 1 µM, first compound 1 µM"}, "[17]": {"conditions": "second compound 3.16 µM, first compound 0.0316 µM"}, "[18]": {"conditions": "second compound 3.16 µM, first compound 0.1 µM"}, "[19]": {"conditions": "second compound 3.16 µM, first compound 0.316 µM"}, "[20]": {"conditions": "second compound 3.16 µM, first compound 1 µM"}, "[21]": {"conditions": "second compound 10 µM, first compound 0.0316 µM"}, "[22]": {"conditions": "second compound 10 µM, first compound 0.1 µM"}, "[23]": {"conditions": "second compound 10 µM, first compound 0.316 µM"}, "[24]": {"conditions": "second compound 10 µM, first compound 1 µM"}}, "data": [{"compound": "CC(=O)O[C@H]1C(=O)[C@@]2(C)[C@H]([C@H](OC(=O)c3ccccc3)[C@]3(O)C[C@H](OC(=O)[C@H](O)[C@@H](NC(=O)c4ccccc4)c4ccccc4)C(C)=C1C3(C)C)[C@]1(OC(C)=O)CO[C@@H]1C[C@@H]2O", "note": "+ CNC(=O)c1ccc(Nc2nc(OC3CCCC3)c3c(-c4ccc5nc(C)oc5c4)c[nH]c3n2)c(OC)c1;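 note: compound exposure lasted seven days before readout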;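 for viability, T/C: 100% = DMSO vehicle control wells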", "values": [{"measurement": "IC50", "setting": "second compound 0.0316 µM", "value": 0.26, "unit": "µM"}, {"measurement": "IC50", "setting": "second compound 0.1 µM", "value": "> 10", "unit": "µM"}, {"measurement": "IC50", "setting": "second compound 0.316 µM", "value": "< 0.0316", "unit": "µM"}, {"measurement": "IC50", "setting": "second compound 1 µM", "value": "< 0.0316", "unit": "µM"}, {"measurement": "IC50", "setting": "second compound 3.16 µM", "value": "< 0.0316", "unit": "µM"}, {"measurement": "IC50", "setting": "second compound 10 µM", "value": "< 0.0316", "unit": "µM"}, {"measurement": "viability, T/C", "setting": "[1]", "value": 73.2, "unit": "%"}, {"measurement": "viability, T/C", "setting": "[2]", "value": 73.2, "unit": "%"}, {"measurement": "viability, T/C", "setting": "[3]", "value": 45.2, "unit": "%"}, {"measurement": "viability, T/C", "setting": "[4]", "value": 26.3, "unit": "%"}, {"measurement": "viability, T/C", "setting": "second compound 0.0316 µM, first compound 3.16 µM", "value": 27.7, "unit": "%"}, {"measurement": "viability, T/C", "setting": "second compound 0.0316 µM, first compound 10 µM", "value": 59.1, "unit": "%"}, {"measurement": "viability, T/C", "setting": "[5]", "value": 64.4, "unit": "%"}, {"measurement": "viability, T/C", "setting": "[6]", "value": 85.1, "unit": "%"}, {"measurement": "viability, T/C", "setting": "[7]", "value": 128, "unit": "%"}, {"measurement": "viability, T/C", "setting": "[8]", "value": 142, "unit": "%"}, {"measurement": "viability, T/C", "setting": "second compound 0.1 µM, first compound 3.16 µM", "value": 156, "unit": "%"}, {"measurement": "viability, T/C", "setting": "second compound 0.1 µM, first compound 10 µM", "value": 166, "unit": "%"}, {"measurement": "viability, T/C", "setting": "[9]", "value": 40.4, "unit": "%"}, {"measurement": "viability, T/C", "setting": "[10]", "value": 64, "unit": "%"}, {"measurement": "viability, T/C", "setting": "[11]", "value": 96, "unit": "%"}, {"measurement": "viability, T/C", "setting": "[12]", "value": 105, "unit": "%"}, {"measurement": "viability, T/C", "setting": "second compound 0.316 µM, first compound 3.16 µM", "value": 110, "unit": "%"}, {"measurement": "viability, T/C", "setting": "second compound 0.316 µM, first compound 10 µM", "value": 94.6, "unit": "%"}, {"measurement": "viability, T/C", "setting": "[13]", "value": 31.5, "unit": "%"}, {"measurement": "viability, T/C", "setting": "[14]", "value": 44.1, "unit": "%"}, {"measurement": "viability, T/C", "setting": "[15]", "value": 53.2, "unit": "%"}, {"measurement": "viability, T/C", "setting": "[16]", "value": 53.3, "unit": "%"}, {"measurement": "viability, T/C", "setting": "second compound 1 µM, first compound 3.16 µM", "value": 61, "unit": "%"}, {"measurement": "viability, T/C", "setting": "second compound 1 µM, first compound 10 µM", "value": 65.5, "unit": "%"}, {"measurement": "viability, T/C", "setting": "[17]", "value": 32.4, "unit": "%"}, {"measurement": "viability, T/C", "setting": "[18]", "value": 44.6, "unit": "%"}, {"measurement": "viability, T/C", "setting": "[19]", "value": 40.2, "unit": "%"}, {"measurement": "viability, T/C", "setting": "[20]", "value": 48.4, "unit": "%"}, {"measurement": "viability, T/C", "setting": "second compound 3.16 µM, first compound 3.16 µM", "value": 44.7, "unit": "%"}, {"measurement": "viability, T/C", "setting": "second compound 3.16 µM, first compound 10 µM", "value": 50, "unit": "%"}, {"measurement": "viability, T/C", "setting": "[21]", "value": 30.1, "unit": "%"}, {"measurement": "viability, T/C", "setting": "[22]", "value": 36.4, "unit": "%"}, {"measurement": "viability, T/C", "setting": "[23]", "value": 41, "unit": "%"}, {"measurement": "viability, T/C", "setting": "[24]", "value": 39.5, "unit": "%"}, {"measurement": "viability, T/C", "setting": "second compound 10 µM, first compound 3.16 µM", "value": 45.2, "unit": "%"}, {"measurement": "viability, T/C", "setting": "second compound 10 µM, first compound 10 µM", "value": 47.6, "unit": "%"}]}, {"compound": "CCc1c2c(nc3ccc(O)cc13)-c1cc3c(c(=O)n1C2)COC(=O)[C@]3(O)CC", "note": "+ CNC(=O)c1ccc(Nc2nc(OC3CCCC3)c3c(-c4ccc5nc(C)oc5c4)c[nH]c3n2)c(OC)c1", "values": [{"measurement": "IC50", "setting": "second compound 0.0316 µM", "value": 0.0244, "unit": "µM"}, {"measurement": "IC50", "setting": "second compound 0.1 µM", "value": 0.0223, "unit": "µM"}, {"measurement": "IC50", "setting": "second compound 0.316 µM", "value": 0.0115, "unit": "µM"}, {"measurement": "IC50", "setting": "second compound 1 µM", "value": "< 0.00316", "unit": "µM"}, {"measurement": "IC50", "setting": "second compound 3.16 µM", "value": "< 0.00316", "unit": "µM"}, {"measurement": "IC50", "setting": "second compound 10 µM", "value": "< 0.00316", "unit": "µM"}, {"measurement": "viability, T/C", "setting": "second compound 0.0316 µM, first compound 0.00316 µM", "value": 101, "unit": "%"}, {"measurement": "viability, T/C", "setting": "second compound 0.0316 µM, first compound 0.01 µM", "value": 73.3, "unit": "%"}, {"measurement": "viability, T/C", "setting": "[1]", "value": 43.3, "unit": "%"}, {"measurement": "viability, T/C", "setting": "[2]", "value": 23.4, "unit": "%"}, {"measurement": "viability, T/C", "setting": "[3]", "value": 16.7, "unit": "%"}, {"measurement": "viability, T/C", "setting": "[4]", "value": 11.2, "unit": "%"}, {"measurement": "viability, T/C", "setting": "second compound 0.1 µM, first compound 0.00316 µM", "value": 77.8, "unit": "%"}, {"measurement": "viability, T/C", "setting": "second compound 0.1 µM, first compound 0.01 µM", "value": 71, "unit": "%"}, {"measurement": "viability, T/C", "setting": "[5]", "value": 40.5, "unit": "%"}, {"measurement": "viability, T/C", "setting": "[6]", "value": 19.2, "unit": "%"}, {"measurement": "viability, T/C", "setting": "[7]", "value": 16.6, "unit": "%"}, {"measurement": "viability, T/C", "setting": "[8]", "value": 10.3, "unit": "%"}, {"measurement": "viability, T/C", "setting": "second compound 0.316 µM, first compound 0.00316 µM", "value": 64.4, "unit": "%"}, {"measurement": "viability, T/C", "setting": "second compound 0.316 µM, first compound 0.01 µM", "value": 54, "unit": "%"}, {"measurement": "viability, T/C", "setting": "[9]", "value": 21, "unit": "%"}, {"measurement": "viability, T/C", "setting": "[10]", "value": 12.9, "unit": "%"}, {"measurement": "viability, T/C", "setting": "[11]", "value": 12.4, "unit": "%"}, {"measurement": "viability, T/C", "setting": "[12]", "value": 7.31, "unit": "%"}, {"measurement": "viability, T/C", "setting": "second compound 1 µM, first compound 0.00316 µM", "value": 47.3, "unit": "%"}, {"measurement": "viability, T/C", "setting": "second compound 1 µM, first compound 0.01 µM", "value": 31.8, "unit": "%"}, {"measurement": "viability, T/C", "setting": "[13]", "value": 12.8, "unit": "%"}, {"measurement": "viability, T/C", "setting": "[14]", "value": 8.64, "unit": "%"}, {"measurement": "viability, T/C", "setting": "[15]", "value": 5.93, "unit": "%"}, {"measurement": "viability, T/C", "setting": "[16]", "value": 4, "unit": "%"}, {"measurement": "viability, T/C", "setting": "second compound 3.16 µM, first compound 0.00316 µM", "value": 43.4, "unit": "%"}, {"measurement": "viability, T/C", "setting": "second compound 3.16 µM, first compound 0.01 µM", "value": 23.8, "unit": "%"}, {"measurement": "viability, T/C", "setting": "[17]", "value": 8.87, "unit": "%"}, {"measurement": "viability, T/C", "setting": "[18]", "value": 10.9, "unit": "%"}, {"measurement": "viability, T/C", "setting": "[19]", "value": 6.99, "unit": "%"}, {"measurement": "viability, T/C", "setting": "[20]", "value": 3.82, "unit": "%"}, {"measurement": "viability, T/C", "setting": "second compound 10 µM, first compound 0.00316 µM", "value": 40.6, "unit": "%"}, {"measurement": "viability, T/C", "setting": "second compound 10 µM, first compound 0.01 µM", "value": 24, "unit": "%"}, {"measurement": "viability, T/C", "setting": "[21]", "value": 10.3, "unit": "%"}, {"measurement": "viability, T/C", "setting": "[22]", "value": 6.46, "unit": "%"}, {"measurement": "viability, T/C", "setting": "[23]", "value": 7.11, "unit": "%"}, {"measurement": "viability, T/C", "setting": "[24]", "value": 4.09, "unit": "%"}]}]}
